Values quoted from earlier work, collected in PMC11280411, “Phytochemical Investigation of Carex praecox Schreb. and ACE-Inhibitory Activity of Oligomer Stilbenes of the Plant” (Molecules, 2024).

Test system: SARS-CoV-2 USA-WA1/2020, B.1.1.7, and B.1.351 variants
Set-up: method as in PMID 34543092
Conditions: cited from earlier work

Q: For Oc1ccc(C2Oc3cc(O)cc4c3C2c2cc(O)cc(O)c2C(c2ccc(O)cc2)C4C2c3cc(O)cc4c3C(c3cc(O)cc(O)c3C2c2ccc(O)cc2)C(c2ccc(O)cc2)O4)cc1 (single isomer, unassigned; (-)) [Compound 16, (–)-hopeaphenol], which “inhibition of cellular entry of SARS-CoV-2” value is on record?
A: Its value is “inhibited cellular entry of SARS-CoV-2 USA-WA1/2020, B.1.1.7, and B.1.351 variants”.
